Experimental data as given in patent publication US12162890B2 (Novartis AG, priority 2015, dated 2024).

Each compound was assayed against HEK293 cells with stable expression of the GRIN1 gene and tetracycline-inducible expression of the GRIN2B gene (NMDA receptor, NR2B) (Homo sapiens, UniProt Q13224) (assay: Fluo-8 Ca2+ flux assay: reversal of Ro 25-6981-mediated suppression of the Ca2+ response to co-agonist (glutamate/glycine)). Settings: reversal of the Ro 25-6981 suppression of the Ca2+ response to co-agonist (glutamate/glycine).
Assay type: cell-based
Note: test concentration or dose not given here.

Chain of HEK293 cells with stable expression of the GRIN1 gene and tetracycline-inducible expression of the GRIN2B gene (NMDA receptor, NR2B) (Q13224 27-1484, other chains not shown): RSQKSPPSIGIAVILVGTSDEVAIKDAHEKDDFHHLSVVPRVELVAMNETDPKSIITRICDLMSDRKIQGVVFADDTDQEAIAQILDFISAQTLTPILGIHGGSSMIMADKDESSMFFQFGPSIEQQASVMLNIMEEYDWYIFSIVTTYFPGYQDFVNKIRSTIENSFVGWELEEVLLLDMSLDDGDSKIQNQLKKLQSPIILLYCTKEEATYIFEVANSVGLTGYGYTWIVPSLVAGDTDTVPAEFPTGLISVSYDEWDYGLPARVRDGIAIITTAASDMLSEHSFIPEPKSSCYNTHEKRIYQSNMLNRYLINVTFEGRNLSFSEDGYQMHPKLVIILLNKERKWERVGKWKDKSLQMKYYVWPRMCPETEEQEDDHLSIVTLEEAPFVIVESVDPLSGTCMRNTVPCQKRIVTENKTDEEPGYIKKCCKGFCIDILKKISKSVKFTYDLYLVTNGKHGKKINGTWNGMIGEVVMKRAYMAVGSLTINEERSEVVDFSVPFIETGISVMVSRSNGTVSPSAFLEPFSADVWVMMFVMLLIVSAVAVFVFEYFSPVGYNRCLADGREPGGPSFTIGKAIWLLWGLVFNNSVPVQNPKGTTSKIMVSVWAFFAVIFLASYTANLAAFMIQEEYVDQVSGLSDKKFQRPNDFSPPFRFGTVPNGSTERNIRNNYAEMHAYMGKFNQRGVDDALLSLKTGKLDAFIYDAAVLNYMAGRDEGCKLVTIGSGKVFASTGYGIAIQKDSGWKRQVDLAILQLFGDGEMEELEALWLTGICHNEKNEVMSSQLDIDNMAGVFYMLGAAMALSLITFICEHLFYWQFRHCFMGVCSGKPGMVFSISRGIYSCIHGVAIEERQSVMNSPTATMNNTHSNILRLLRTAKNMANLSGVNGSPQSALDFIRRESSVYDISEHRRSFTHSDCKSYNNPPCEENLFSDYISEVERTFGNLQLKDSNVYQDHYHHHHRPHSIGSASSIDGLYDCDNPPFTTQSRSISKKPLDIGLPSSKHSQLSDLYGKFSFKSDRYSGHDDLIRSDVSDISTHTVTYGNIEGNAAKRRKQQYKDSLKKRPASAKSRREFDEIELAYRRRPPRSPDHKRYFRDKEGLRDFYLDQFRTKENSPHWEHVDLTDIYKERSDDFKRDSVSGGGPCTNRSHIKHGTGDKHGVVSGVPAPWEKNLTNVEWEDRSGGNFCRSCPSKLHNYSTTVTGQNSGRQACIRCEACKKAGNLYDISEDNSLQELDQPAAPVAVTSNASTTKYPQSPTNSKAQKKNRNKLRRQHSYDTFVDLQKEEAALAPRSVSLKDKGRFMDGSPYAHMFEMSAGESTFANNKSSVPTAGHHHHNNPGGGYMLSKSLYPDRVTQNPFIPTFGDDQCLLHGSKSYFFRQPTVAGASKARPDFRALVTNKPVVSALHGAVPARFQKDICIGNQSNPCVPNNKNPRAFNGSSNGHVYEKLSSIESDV

SMILES	Response Recovered (%)
O=C(Cn1cnc2[nH]cc(-c3ccc(Cl)c(C(F)(F)F)c3)c2c1=O)N1CCC(F)C1 (centres unmarked) [Example 177, 5-(4-chloro-3-(trifluoromethyl)phenyl)-3-(2-(3-fluoropyrrolidin-1-yl)-2-oxoethyl)-3H-pyrrolo[2,3-d]pyrimidin-4(7H)-one]	85
O=C(Cn1cnc2[nH]cc(-c3ccc(F)c(Cl)c3)c2c1=O)N1CCC(F)C1 (centres unmarked) [Example 178, 5-(3-chloro-4-fluorophenyl)-3-(2-(3-fluoropyrrolidin-1-yl)-2-oxoethyl)-3H-pyrrolo[2,3-d]pyrimidin-4(7H)-one]	54
O=C(Cn1cnc2[nH]cc(-c3ccc(Cl)c(F)c3)c2c1=O)N1CCC(F)C1 (centres unmarked) [Example 179, 5-(4-Chloro-3-fluoro-phenyl)-3-[2-(3-fluoro-pyrrolidin-1-yl)-2-oxo-ethyl]-3,7-dihydro-pyrrolo[2,3-d]pyrimidin-4-one]	37
O=C(Cn1cnc2[nH]cc(-c3cnc(Cl)c(Cl)c3)c2c1=O)N1CCC(F)C1 (centres unmarked) [Example 180, 5-(5,6-dichloropyridin-3-yl)-3-(2-(3-fluoropyrrolidin-1-yl)-2-oxoethyl)-3H-pyrrolo[2,3-d]pyrimidin-4(7H)-one]	15
O=C(Cn1cnc2[nH]cc(-c3ccc(Cl)c(C(F)(F)F)c3)c2c1=O)N1C[C@@H](F)[C@@H](F)C1 [Example 181]	69
O=C(Cn1cnc2[nH]cc(-c3cnc(Cl)c(C(F)(F)F)c3)c2c1=O)N1CC(F)(F)C1 [Example 182, 5-(6-chloro-5-(trifluoromethyl)pyridin-3-yl)-3-(2-(3,3-difluoroazetidin-1-yl)-2-oxoethyl)-3H-pyrrolo[2,3-d]pyrimidin-4(7H)-one]	18
O=C(Cn1cnc2[nH]cc(-c3cnc(Cl)c(C(F)(F)F)c3)c2c1=O)N1CCC(F)C1 (centres unmarked) [Example 183, 5-(6-chloro-5-(trifluoromethyl)pyridin-3-yl)-3-(2-(3-fluoropyrrolidin-1-yl)-2-oxoethyl)-3H-pyrrolo[2,3-d]pyrimidin-4(7H)-one]	14
CCn1cc(-c2ccc(F)c(C(F)(F)F)c2)c2c(=O)n(CC(=O)N3CCC(F)C3)cnc21 (centres unmarked) [Example 184]	66
COCCn1cc(-c2ccc(Cl)c(C(F)(F)F)c2)c2c(=O)n(CC(=O)N3CCCC3)cnc21 [Example 185, 5-(4-chloro-3-(trifluoromethyl)phenyl)-7-(2-methoxyethyl)-3-(2-oxo-2-(pyrrolidin-1-yl)ethyl)-3H-pyrrolo[2,3-d]pyrimidin-4(7H)-one]	76
COCCn1cc(-c2ccc(F)c(Cl)c2)c2c(=O)n(CC(=O)N3CCCC3)cnc21 [Example 186, 5-(3-chloro-4-fluorophenyl)-7-(2-methoxyethyl)-3-(2-oxo-2-(pyrrolidin-1-yl)ethyl)-3H-pyrrolo[2,3-d]pyrimidin-4(7H)-one]	18
COCCn1cc(-c2ccc(Cl)c(F)c2)c2c(=O)n(CC(=O)N3CCCC3)cnc21 [Example 187, 5-(4-chloro-3-fluorophenyl)-7-(2-methoxyethyl)-3-(2-oxo-2-(pyrrolidin-1-yl)ethyl)-3H-pyrrolo[2,3-d]pyrimidin-4(7H)-one]	9
COCCn1cc(-c2ccc(F)c(C(F)(F)F)c2)c2c(=O)n(CC(=O)N3CCC(F)C3)cnc21 (centres unmarked) [Example 188, 5-(4-fluoro-3-(trifluoromethyl)phenyl)-3-(2-(3-fluoropyrrolidin-1-yl)-2-oxoethyl)-7-(2-methoxyethyl)-3H-pyrrolor[2,3-d]pyrimidin-4(7H)-one]	53
COCn1cc(-c2ccc(F)c(C(F)(F)F)c2)c2c(=O)n(CC(=O)N3CCC(F)C3)cnc21 (centres unmarked) [Example 189, 5-(4-fluoro-3-(trifluoromethyl)phenyl)-3-(2-(3-fluoropyrrolidin-1-yl)-2-oxoethyl)-7-(methoxymethyl)-3H-pyrrolo[2,3-d]pyrimidin-4(7H)-one]	39
O=C(Cn1cnc2c(c(-c3ccc(Cl)c(C(F)(F)F)c3)cn2C2CC2)c1=O)N1CCCC1 [Example 190, 5-(4-chloro-3-(trifluoromethyl)phenyl)-7-cyclopropyl-3-(2-oxo-2-(pyrrolidin-1-yl)ethyl)-3H-pyrrolo[2,3-d]pyrimidin-4(7H)-one]	71
O=C(Cn1cnc2c(c(-c3ccc(Cl)c(F)c3)cn2C2CC2)c1=O)N1CCCC1 [Example 191, 5-(4-chloro-3-fluorophenyl)-7-cyclopropyl-3-(2-oxo-2-(pyrrolidin-1-yl)ethyl)-3H-pyrrolo[2,3-d]pyrimidin-4(7H)-one]	36
O=C(Cn1cnc2c(c(-c3ccc(F)c(Cl)c3)cn2C2CC2)c1=O)N1CCCC1 [Example 192, 5-(3-chloro-4-fluorophenyl)-7-cyclopropyl-3-(2-oxo-2-(pyrrolidin-1-yl)ethyl)-3H-pyrrolo[2,3-d]pyrimidin-4(7H)-one]	42
O=C(Cn1cnc2c(c(-c3ccc(Cl)c(C(F)(F)F)c3)cn2CCO)c1=O)N1CCCC1 [Example 194, 5-(4-chloro-3-(trifluoromethyl)phenyl)-7-(2-hydroxyethyl)-3-(2-oxo-2-(pyrrolidin-1-yl)ethyl)-3H-pyrrolo[2,3-d]pyrimidin-4(7H)-one]	2
O=C(Cn1cnc2c(c(-c3ccc(F)c(Cl)c3)cn2CCO)c1=O)N1CCCC1 [Example 195, 5-(3-chloro-4-fluorophenyl)-7-(2-hydroxyethyl)-3-(2-oxo-2-(pyrrolidin-1-yl)ethyl)-3H-pyrrolo[2,3-d]pyrimidin-4(7H)-one]	21
O=C(Cn1cnc2c(c(-c3ccc(F)c(C(F)(F)F)c3)cn2CCO)c1=O)N1CCC(F)C1 (centres unmarked) [Example 196, 5-(4-fluoro-3-(trifluoromethyl)phenyl)-3-(2-(3-fluoropyrrolidin-1-yl)-2-oxoethyl)-7-(2-hydroxyethyl)-3H-pyrrolo[2,3-d]pyrimidin-4(7H)-one]	34
O=C(Cn1cnc2c(c(-c3ccc(Cl)c(F)c3)cn2CCO)c1=O)N1CCCC1 [Example 197]	7
O=C(Cn1ccc2[nH]cc(-c3ccc(Cl)c(C(F)(F)F)c3)c2c1=O)N1CCCC1 [Example 198, 3-(4-chloro-3-(trifluoromethyl)phenyl)-5-(2-oxo-2-(pyrrolidin-1-yl)ethyl)-1H-pyrrolo[3,2-c]pyridin-4(5H)-one]	104
C[Si](C)(C)CCOCn1cc(-c2ccc(Cl)c(C(F)(F)F)c2)c2c(=O)n(CC(=O)N3CCC(F)C3)ccc21 (centres unmarked) [Example 199, 3-(4-chloro-3-(trifluoromethyl)phenyl)-5-(2-(3-fluoropyrrolidin-1-yl)-2-oxoethyl)-1-((2-(trimethylsilyl)ethoxy)methyl)-1H-pyrrolo[3,2-c]pyridin-4(5H)-one]	47
C[Si](C)(C)CCOCn1cc(-c2ccc(Cl)c(C(F)(F)F)c2)c2c(=O)n(CC(=O)N3CC(F)(F)C3)ccc21 [Example 200, 3-(4-chloro-3-(trifluoromethyl)phenyl)-5-(2-(3,3-difluoroazetidin-1-yl)-2-oxoethyl)-1-((2-(trimethylsilyl)ethoxy)methyl)-1H-pyrrolo[3,2-c]pyridin-4(5H)-one]	18
